{
  "source": "patent US20240269139A1",
  "about": "“COMPOUNDS FOR TARGETED PROTEIN DEGRADATION OF KINASES” (DANA-FARBER CANCER INSTITUTE, INC., priority 2020, published 2024)",
  "type_in_all_cases": "cell-based",
  "key": {"[1]": {"target": "protein kinases (human kinome) (Homo sapiens, UniProt Q00534)", "sequence (Q00534 whole entry)": "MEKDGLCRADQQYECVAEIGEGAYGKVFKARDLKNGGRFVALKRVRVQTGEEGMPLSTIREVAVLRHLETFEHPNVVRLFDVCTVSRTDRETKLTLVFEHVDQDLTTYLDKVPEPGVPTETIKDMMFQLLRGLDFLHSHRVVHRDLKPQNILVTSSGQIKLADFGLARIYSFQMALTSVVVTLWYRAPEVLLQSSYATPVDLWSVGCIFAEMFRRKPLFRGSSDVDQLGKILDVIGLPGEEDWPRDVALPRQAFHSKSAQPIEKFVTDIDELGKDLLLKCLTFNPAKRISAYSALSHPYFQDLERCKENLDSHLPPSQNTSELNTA"}, "[2]": {"target": "protein kinases (human kinome) (Homo sapiens, UniProt P53671)", "sequence (P53671 whole entry)": "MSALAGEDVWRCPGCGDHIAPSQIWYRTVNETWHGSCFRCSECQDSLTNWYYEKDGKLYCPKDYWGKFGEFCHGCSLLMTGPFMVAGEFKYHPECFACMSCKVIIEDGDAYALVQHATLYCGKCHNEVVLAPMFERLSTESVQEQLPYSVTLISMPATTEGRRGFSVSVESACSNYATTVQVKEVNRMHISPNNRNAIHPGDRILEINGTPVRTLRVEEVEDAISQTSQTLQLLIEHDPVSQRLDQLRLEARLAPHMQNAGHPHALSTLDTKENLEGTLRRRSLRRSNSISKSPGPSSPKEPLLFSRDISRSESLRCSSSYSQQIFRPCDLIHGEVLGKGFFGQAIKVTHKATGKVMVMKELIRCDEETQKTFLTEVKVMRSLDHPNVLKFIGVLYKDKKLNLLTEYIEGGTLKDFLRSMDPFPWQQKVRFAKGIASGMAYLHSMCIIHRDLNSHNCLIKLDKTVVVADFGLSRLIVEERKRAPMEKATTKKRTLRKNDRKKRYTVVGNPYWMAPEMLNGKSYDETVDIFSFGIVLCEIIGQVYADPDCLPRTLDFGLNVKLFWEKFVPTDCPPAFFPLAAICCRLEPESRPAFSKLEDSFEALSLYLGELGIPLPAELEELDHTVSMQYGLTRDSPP", "details": "experiment wp137"}, "[3]": {"test_system": "protein kinases (human kinome)"}, "[4]": {"target": "protein kinases (human kinome) (Homo sapiens, UniProt P11802)", "sequence (P11802 whole entry)": "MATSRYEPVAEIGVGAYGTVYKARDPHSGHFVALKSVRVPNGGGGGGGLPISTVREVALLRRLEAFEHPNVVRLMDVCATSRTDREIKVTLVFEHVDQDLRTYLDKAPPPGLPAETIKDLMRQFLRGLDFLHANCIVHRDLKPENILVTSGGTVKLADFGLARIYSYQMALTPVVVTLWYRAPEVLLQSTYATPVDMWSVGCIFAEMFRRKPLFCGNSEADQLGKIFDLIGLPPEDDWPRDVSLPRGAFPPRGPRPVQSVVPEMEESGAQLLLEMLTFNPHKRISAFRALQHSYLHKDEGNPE", "details": "experiment wp137"}, "[5]": {"target": "T1, protein kinases (human kinome) (Homo sapiens, UniProt O75385)", "T1 sequence (O75385 1-1050)": "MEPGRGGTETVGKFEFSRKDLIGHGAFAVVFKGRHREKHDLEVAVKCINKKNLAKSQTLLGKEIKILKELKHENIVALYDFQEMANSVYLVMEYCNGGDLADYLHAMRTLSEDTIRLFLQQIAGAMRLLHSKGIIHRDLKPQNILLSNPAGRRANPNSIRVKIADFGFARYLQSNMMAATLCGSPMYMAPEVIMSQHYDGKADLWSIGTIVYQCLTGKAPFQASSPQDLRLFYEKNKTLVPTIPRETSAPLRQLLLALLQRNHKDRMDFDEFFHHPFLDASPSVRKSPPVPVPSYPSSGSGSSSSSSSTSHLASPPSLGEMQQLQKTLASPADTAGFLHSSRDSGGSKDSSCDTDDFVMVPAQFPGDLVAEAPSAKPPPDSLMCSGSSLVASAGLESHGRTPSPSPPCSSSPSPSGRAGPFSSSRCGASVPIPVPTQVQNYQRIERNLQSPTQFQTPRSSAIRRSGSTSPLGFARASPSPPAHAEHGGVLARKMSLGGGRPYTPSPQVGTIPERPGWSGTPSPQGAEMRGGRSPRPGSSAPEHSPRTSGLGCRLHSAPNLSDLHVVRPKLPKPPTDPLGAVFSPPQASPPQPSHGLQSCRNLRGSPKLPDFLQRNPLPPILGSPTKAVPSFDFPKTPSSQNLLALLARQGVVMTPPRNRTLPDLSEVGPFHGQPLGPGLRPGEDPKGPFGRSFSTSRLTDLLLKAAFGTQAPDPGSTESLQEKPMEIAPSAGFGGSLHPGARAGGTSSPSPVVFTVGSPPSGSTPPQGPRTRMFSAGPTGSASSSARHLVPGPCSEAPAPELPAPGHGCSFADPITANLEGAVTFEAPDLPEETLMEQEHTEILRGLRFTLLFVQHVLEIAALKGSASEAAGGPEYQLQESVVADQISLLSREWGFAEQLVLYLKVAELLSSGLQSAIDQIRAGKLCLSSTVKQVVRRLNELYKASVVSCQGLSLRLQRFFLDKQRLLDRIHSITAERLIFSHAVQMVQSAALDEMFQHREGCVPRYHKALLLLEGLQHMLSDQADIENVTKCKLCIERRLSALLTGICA"}, "[6]": {"target": "protein kinases (human kinome) (Homo sapiens, UniProt P51451)", "sequence (P51451 whole entry)": "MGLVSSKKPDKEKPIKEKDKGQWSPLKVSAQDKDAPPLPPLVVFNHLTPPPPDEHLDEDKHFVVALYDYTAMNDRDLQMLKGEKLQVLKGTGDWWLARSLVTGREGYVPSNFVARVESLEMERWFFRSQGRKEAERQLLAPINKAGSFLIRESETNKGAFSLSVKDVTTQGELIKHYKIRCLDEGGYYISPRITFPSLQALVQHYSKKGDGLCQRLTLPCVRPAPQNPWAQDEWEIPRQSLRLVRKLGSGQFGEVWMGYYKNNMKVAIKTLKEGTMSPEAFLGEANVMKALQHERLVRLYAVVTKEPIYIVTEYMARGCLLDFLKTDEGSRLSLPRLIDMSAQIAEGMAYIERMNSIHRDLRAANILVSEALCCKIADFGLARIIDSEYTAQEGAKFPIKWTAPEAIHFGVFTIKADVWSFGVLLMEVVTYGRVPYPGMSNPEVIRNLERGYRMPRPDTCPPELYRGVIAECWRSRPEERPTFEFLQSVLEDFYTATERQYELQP"}, "[7]": {"details": "AURKB Q96GD4-5, experiment wp137"}},
  "note": "Like-named read-outs stand apart in the source and are kept apart here.",
  "data": [
    {"smiles": "CC(C)S(=O)(=O)c1ccccc1Nc1nc(Nc2ccc(N3CCN(CCOCCOCCC(=O)NCCNc4cccc5c4CN(C4CCC(=O)NC4=O)C5=O)CC3)cc2)ncc1Cl", "note": "(stereo not shown) [TL13.97]", "values": [
      {"measurement": "logFC CDK6", "setting": "[1]; CDK6 (Q00534), direction down, experiment wp137", "value": "−0.5967"},
      {"measurement": "logFC of CDK6 (Q00534)", "setting": "[1]; Experiment wp137, down", "value": "−0.5967"},
      {"measurement": "logFC LIMK2", "setting": "[2]; LIMK2 (P53671), down", "value": "−0.9054"},
      {"measurement": "logFC of LIMK2", "setting": "[2]; LIMK2 P53671", "value": "−0.9054"},
      {"measurement": "logFC", "setting": "[3]; [7]", "value": "−0.7523"},
      {"measurement": "logFC AURKB", "setting": "[3]; [7]", "value": "−0.7523"},
      {"measurement": "logFC BUB1B", "setting": "[3]; Accession O60566-3, experiment wp137, direction down", "value": "−0.3313"},
      {"measurement": "logFC of SRC", "setting": "[3]; Accession P12931-2, experiment wp137", "value": "−0.4824"},
      {"measurement": "logFC of CDK17", "setting": "[3]; Accession Q00537-2, experiment wp137", "value": "−0.5683"},
      {"measurement": "logFC BUB1B", "setting": "[3]; BUB1B (O60566-3), experiment wp137", "value": "−0.3313"},
      {"measurement": "logFC", "setting": "[3]; CDK9 (P50750-2) protein abundance, degrader vs DMSO, down", "value": "−1.37"},
      {"measurement": "logFC PRKAA1 (Q13131-2)", "setting": "[3]; Experiment wp137, direction down", "value": "−0.6678"},
      {"measurement": "logFC LCK", "setting": "[3]; LCK, accession P06239-3, experiment wp137, direction of change down", "value": "−0.8721"},
      {"measurement": "logFC RPS6KA1", "setting": "[3]; RPS6KA1 (Q15418-2), experiment wp137", "value": "−0.3757"},
      {"measurement": "logFC", "setting": "[3]; SRC (P12931-2) protein abundance, degrader vs DMSO, down", "value": "−0.4824"},
      {"measurement": "logFC CDK9 (P50750-2)", "setting": "[3]; experiment wp137", "value": "−1.37"},
      {"measurement": "logFC PRKAA1 (Q13131-2)", "setting": "[3]; experiment wp137", "value": "−0.6678"},
      {"measurement": "logFC RPS6KA1 (Q15418-2)", "setting": "[3]; experiment wp137", "value": "−0.3757"},
      {"measurement": "logFC of CDK17 (Q00537-2)", "setting": "[3]; experiment wp137", "value": "−0.5683"},
      {"measurement": "logFC LCK (P06239-3)", "setting": "[3]; experiment wp137, direction of change down", "value": "−0.8721"},
      {"measurement": "logFC CDK4 (P11802)", "setting": "[4]", "value": "−0.9676"},
      {"measurement": "logFC", "setting": "[5]; ULK1 (O75385) protein abundance, degrader vs DMSO, down", "value": "−1.877"},
      {"measurement": "logFC ULK1", "setting": "[5]; ULK1 O75385, experiment wp137", "value": "−1.877"},
      {"measurement": "logFC BLK", "setting": "[6]; BLK (P51451), direction down, experiment wp137", "value": "−2.219"},
      {"measurement": "logFC of BLK (P51451)", "setting": "[6]; Experiment wp137, down", "value": "−2.219"}
    ]}
  ]
}
